# Key:
# [1] = biological target: T1, mouse PPARγ ligand binding domain (Mus musculus, UniProt P37238); experiment: PPARγ ligand activity: GAL4-mPPARγ LBD chimera luciferase reporter assay in CV-1 cells; assay type: cell-based; conditions: for PPARγ ligand activities (dependence on concentration): 2-10 μg/ml; for PPARγ ligand activity: relative to untreated control (DMSO)=1.00, mean ± SD, n=4
# T1 construct: expressed in transfected cells; host or cells: CV-1 cells (African green monkey kidney)
# T1 sequence (P37238 174-475 isoform P37238-2): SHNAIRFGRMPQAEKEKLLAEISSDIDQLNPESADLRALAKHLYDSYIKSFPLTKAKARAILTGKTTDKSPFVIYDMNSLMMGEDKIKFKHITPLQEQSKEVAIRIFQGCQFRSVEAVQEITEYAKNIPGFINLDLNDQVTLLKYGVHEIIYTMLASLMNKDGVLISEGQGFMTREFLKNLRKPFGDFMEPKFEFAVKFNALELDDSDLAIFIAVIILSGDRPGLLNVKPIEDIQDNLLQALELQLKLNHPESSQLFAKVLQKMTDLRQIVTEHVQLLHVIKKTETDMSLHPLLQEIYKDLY
# Experimental: CV-1 cells (cultured cells derived from male African green monkey kidney) were inoculated into a 96-well culture plate at 6×10^3 cells/well, and incubated at 37° C. for 24 hours under 5% CO2 conditions. As a medium, DMEM (Dulbecco's Modified Eagle Medium, product of GIBCO) containing 10% FBS (fetal bovine serum), 10 ml/L penicillin-streptomycin (5000 IU/ml and 5000 μg/ml, respectively, product of GIBCO), 37 mg/L ascorbic acid (product of Wako Pure Chemical Industries, Ltd.) was used. Cells were washed with OPTI-MEM (product of GIBCO), a serum-free medium, and transfected with pM-mPPARγ and 4×USAg-luc using LIPOFECTAMINE PLUS™ (product of GIBCO), a reagent for transfection of genes using a cationic lipid. […] The 4×UASg-luc is a reporter plasmid incorporated luciferase gene with 4-time-repeated responsive element (UASg) of GAL4 ligated thereto at the upstream end thereof. At approximately 24 hours after the transfection, the medium was replaced by a medium containing each sample (n=4) and cells were incubated for an additional 2 hours. Each sample used was dissolved in dimethyl sulfoxide (DMSO) and DMSO was used as an untreated control sample. […] Cells were washed with Ca, Mg-containing phosphate buffered saline (PBS+) and added with LUCLITE™ (product of Packard), a reagent for determination of luminescence using luciferase. Then, the luminescent intensity by expressed luciferase was determined in a TOPCOUNT™ Microplate Scintillation/Luminescence Counter (product of Packard).
# The luminescent intensity was determined in the control group in the same way as in the test groups, but using pM (a plasmid lacking PPARγ ligand binding domain gene) instead of pM-mPPARγ. The ratio (test group/control group) of the average luminescent intensity between the test and control groups (n=4) was determined for each sample, and the relative activity of test sample. against the untreated control sample was determined as the PPARγ ligand activity of the sample.
# KK-Ay mice = experiment: Effect in KK-Ay model mice of type-II diabetes mellitus (body weight, blood glucose); assay type: in vivo, mouse; conditions: for Blood Glucose Level / Mouse Body weight: diet with 0.04% pioglitazone or 0.5% curcumin, mean ± SD
# Experimental: KK-Ay mice, a model of genetically obese and type-II diabetic animals, were used to evaluate the effect of curcumin. Pioglitazone, a drug for treating diabetes mellitus, was used as a positive control.
# KK-Ay mice (females, 6 weeks old) were divided into 3 groups (5 animals per group). By using a normal diet (product of Oriental Yeast Co. Ltd., Table 3) as a base feed, three types of feeds, i.e., a diet with out any additives, with pioglitazone and with curcumin, were prepared. Mice were placed in an environment in which they were freely accessible to a diet without any additives (control group), with pioglitazone (pioglitazone-added group) or with curcumin (curcumin-added group) for 4 weeks. Pioglitazone used was obtained by grinding Actos tablet 30 (30 mg pioglitazone per tablet, Takeda Chemical Industries Ltd.) in an agate mortar. The ground Actos tablet was then added to the normal diet at a dose of 0.04% pioglitazone. Curcumin was added to the normal diet at a dose of 0.5% curcumin.
# During feeding, a small amount of blood was collected from the caudal vein of mice every week to determine blood glucose level using a simple bloodglucose level analyzer GLUTESTACE (Sanwa Kagaku Kenkyusho Co., Ltd.).
# C57BL/6J mice = experiment: Effect in model mice of diet-induced obesity (adipose tissue weights); assay type: in vivo, mouse
# Experimental: C57BL/6J mice (females, 8 weeks old) were freely accessible to a high fat/high sugar diet (Oriental Yeast Co., Ltd., Table 6) for 8 weeks to obtain dietary obese animals. By using a normal diet (Oriental Yeast Co. Ltd., Table 3) as a base feed, two types of feeds, i.e., a diet without any additives and with 0.5% curcumin, were prepared. Next, said mice were divided into 2 groups (7 animals per group), and each group was freely accessible to a diet without any additives (control group) or with 0.5% curcumin (curcumin group) for 4 weeks. After an overnight fasting, mice were subjected to abdominal section under ether anesthesia to collect blood from the abdominal aorta, and then sacrificed. Then, adipose tissues were collected from the tissues around uterus, kidney and mesentery, and their weights were determined. The sum of the weights of periuterine, perirenal and mesenteric adipose tissues was determined as the total amount of intra-abdominal adipose tissue.
# rats = rats which received curcumin; cited from earlier work
# [2] = tested on: streptozotocin-induced diabetic rats; conditions: diet containing 0.5% curcumin; cited from earlier work
# [3] = diet-induced obese C57BL/6J mice, 0.5% curcumin diet for 4 weeks, mean ± SD
Compound,PPARγ ligand activities (dependence on concentration) [1],PPARγ ligand activity ([1]; added concentration 2 μg/ml),PPARγ ligand activity ([1]; added concentration 5 μg/ml),PPARγ ligand activity ([1]; added concentration 10 μg/ml),Blood Glucose Level (KK-Ay mice; After 1 week) [mg/dL],Mouse Body weight (KK-Ay mice; After 1 week) [g],Blood Glucose Level (KK-Ay mice; After 2 weeks) [mg/dL],Mouse Body weight (KK-Ay mice; After 2 weeks) [g],Blood Glucose Level (KK-Ay mice; After 3 weeks) [mg/dL],Mouse Body weight (KK-Ay mice; After 3 weeks) [g],Blood Glucose Level (KK-Ay mice; After 4 weeks) [mg/dL],Mouse Body weight (KK-Ay mice; After 4 weeks) [g],Blood Glucose Level (KK-Ay mice; Start of feeding) [mg/dL],Mouse Body weight (KK-Ay mice; Start of feeding) [g],also measured
"COc1cc(/C=C/C(=O)/C=C(O)/C=C/c2ccc(O)c(OC)c2)ccc1O [Compound 1, Curcumin]",concentration-dependent,2.36 ± 0.94,3.67 ± 1.06,4.16 ± 1.10,191 ± 18,34.7 ± 1.1,222 ± 46,39.8 ± 0.7,348 ± 125,42.8 ± 0.9,344 ± 105,44.7 ± 1.0,139 ± 7,25.5 ± 0.7,"Elevation of blood glucose level compared with control group (KK-Ay mice; 4 weeks feeding): suppressed significantly; Mouse body weight change compared with control group (KK-Ay mice; 4 weeks feeding): without any significant difference; Body weight compared with control group (C57BL/6J mice): no significant difference; Weights of periuterine, perirenal, mesenteric and intra-abdominal adipose tissues compared with control group (C57BL/6J mice): significantly reduced; Adipose tissue per body weight: Mesenteric adipose tissue (c) (C57BL/6J mice; [3]): 0.39 ± 0.11 % by weight; Adipose tissue per body weight: Perirenal adipose tissue (b) (C57BL/6J mice; [3]): 0.46 ± 0.15 % by weight; Adipose tissue per body weight: Periuterine adipose tissue (a) (C57BL/6J mice; [3]): 0.8 ± 0.21 % by weight; Body weight after feeding (C57BL/6J mice; [3]): 22.9 ± 0.9 g; Adipose tissue per body weight: Intra-abdominal adipose tissue (a + b + c) (C57BL/6J mice; sum of periuterine, perirenal and mesenteric, diet-induced obese C57BL/6J mice, 0.5% curcumin diet for 4 weeks, mean ± SD): 1.65 ± 0.42 % by weight; Activity of acyl-CoA oxidase (β-oxidation promotive enzyme) (rats): enhanced; Triglyceride accumulation in the liver (rats): inhibition; Cholesterol, triglyceride and phospholipid levels in blood [2]: reduced; Renal lesions associated with diabetes mellitus [2]: amelioration"
"CCc1ccc(CCOc2ccc(CC3SC(=O)NC3=O)cc2)nc1 (stereo not drawn) [Pioglitazone, reference compound]",–,–,–,–,163 ± 23,36.7 ± 1.0,182 ± 9,39.9 ± 1.2,166 ± 18,42.3 ± 1.2,153 ± 21,43.8 ± 1.4,151 ± 9,26.9 ± 1.0,–
Bisdemethoxycurcumin [Compound 3],concentration-dependent,1.88 ± 0.33,3.55 ± 0.38,4.08 ± 0.46,–,–,–,–,–,–,–,–,–,–,–
Demethoxycurcumin [Compound 2],concentration-dependent,2.17 ± 0.39,4.25 ± 0.77,4.41 ± 0.35,–,–,–,–,–,–,–,–,–,–,–

# — patent publication US7090874B2, “Ligand for peroxisome proliferator-activated receptor” (Kaneka Corporation, priority 2001, dated 2006)
